These results are taken from ChEMBL document CHEMBL1148155, “Botryllamides E-H, four new tyrosine derivatives from the ascidian Botrylloides tyreum” (J Nat Prod, 2004).

This experiment relates to HCT-116. Nature of the experiment: Cytotoxicity against human HCT116 cells after 72 hrs by MTS/PMS assay. It is filed as functional, cell-based. The note with it: HCT-116, 72 h.
For the molecule `CO/C(=C\c1ccc(O)cc1)C(=O)N/C=C/c1cc(Br)c(OC)c(Br)c1` [BOTRYLLAMIDE A], half-maximal inhibition (IC50) required 33 µM.

Consider `CO/C(=C\c1ccc(O)cc1)C(=O)N/C=C/c1ccc(OC)cc1` [BOTRYLLAMIDE E], for which the IC50 – broadly, the concentration at which inhibition is half-maximal – worked out at 30 µM.

Molecule `CO/C(=C\c1ccc(O)cc1)C(=O)N/C=C/c1cc(Br)c(O)c(Br)c1` [BOTRYLLAMIDE G] displayed an IC50 of 110 µM.

With `CO/C(=C\c1ccc(O)cc1)C(=O)N/C=C/c1ccc(OC)c(Br)c1` [BOTRYLLAMIDE C], the IC50 was 28 µM.

Take `CO/C(=C\c1ccc(O)cc1)C(=O)N/C=C/c1ccc(O)cc1` [BOTRYLLAMIDE F]: 85 µM corresponded to half-maximal inhibition (IC50).
